Legend:
Beta-secretase 1 [1] = target: T1, Beta-secretase 1 (Homo sapiens, UniProt P56817); experiment: Inhibition of recombinant human BACE1 at 2 uM by FRET analysis
Beta-secretase 1 [2] = target: T1, Beta-secretase 1; experiment: Inhibition of recombinant human BACE1 at 0.2 uM by FRET analysis
Beta-secretase 1 [3] = target: T1, Beta-secretase 1; experiment: Inhibition of recombinant human BACE1 by FRET analysis
Renin = target: T2, Renin (Homo sapiens, UniProt P00797); experiment: Inhibition of human renin
T2 sequence (P00797 whole entry): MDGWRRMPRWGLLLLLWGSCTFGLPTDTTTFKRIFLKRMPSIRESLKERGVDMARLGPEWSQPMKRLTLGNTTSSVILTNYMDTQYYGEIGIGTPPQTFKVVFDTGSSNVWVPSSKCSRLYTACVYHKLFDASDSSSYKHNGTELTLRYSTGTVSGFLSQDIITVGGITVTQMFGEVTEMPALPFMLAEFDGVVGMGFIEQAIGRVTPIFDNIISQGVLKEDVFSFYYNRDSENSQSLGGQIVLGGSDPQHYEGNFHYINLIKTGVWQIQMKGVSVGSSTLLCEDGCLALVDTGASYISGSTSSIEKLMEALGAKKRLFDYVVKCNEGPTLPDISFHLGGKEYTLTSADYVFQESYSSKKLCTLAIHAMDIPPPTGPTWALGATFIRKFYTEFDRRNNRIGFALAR

T1 sequence (P56817 whole entry): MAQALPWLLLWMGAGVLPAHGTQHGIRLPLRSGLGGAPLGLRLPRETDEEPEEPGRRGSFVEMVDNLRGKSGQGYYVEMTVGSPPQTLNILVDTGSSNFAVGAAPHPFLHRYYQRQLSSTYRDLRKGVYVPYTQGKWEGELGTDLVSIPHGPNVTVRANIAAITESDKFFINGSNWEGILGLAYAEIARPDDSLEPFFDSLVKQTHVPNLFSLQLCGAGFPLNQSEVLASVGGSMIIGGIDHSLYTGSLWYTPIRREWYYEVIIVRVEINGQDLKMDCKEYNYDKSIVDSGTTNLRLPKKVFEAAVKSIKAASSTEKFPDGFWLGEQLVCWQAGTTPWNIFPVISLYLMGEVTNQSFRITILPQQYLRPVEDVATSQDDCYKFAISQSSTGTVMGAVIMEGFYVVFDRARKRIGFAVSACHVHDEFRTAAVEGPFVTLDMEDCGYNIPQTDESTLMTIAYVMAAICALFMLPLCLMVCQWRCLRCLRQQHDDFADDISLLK

Row | SMILES | inhibition (Beta-secretase 1 [1]) | inhibition (Beta-secretase 1 [2]) | IC50 (Beta-secretase 1 [3]) | IC50 (Renin)
1 | C[C@@H](NC(=O)c1cc(C(=O)N[C@@H](Cc2ccccc2)[C@@H](O)C(=O)Nc2nnc(-c3ccccc3)s2)cc(N(C)S(C)(=O)=O)c1)c1ccccc1 | 43% |  |  | 
2 | C[C@@H](NC(=O)c1cc(C(=O)N[C@@H](Cc2ccccc2)[C@@H](O)C(=O)Nc2ncc(Br)s2)cc(N(C)S(C)(=O)=O)c1)c1ccccc1 | 78% |  |  | 
3 | Cc1nnc(NC(=O)[C@H](O)[C@H](Cc2ccccc2)NC(=O)c2cc(C(=O)N[C@H](C)c3ccccc3)cc(N(C)S(C)(=O)=O)c2)s1 | 90% | 50% |  | 
4 | C[C@@H](NC(=O)c1cc(C(=O)N[C@@H](Cc2ccccc2)[C@H](O)C(=O)Nc2nccs2)cc(N(C)S(C)(=O)=O)c1)c1ccccc1 | 19% |  |  | 
5 | C[C@@H](NC(=O)c1cc(C(=O)N[C@@H](Cc2ccccc2)[C@@H](O)C(=O)Nc2nc3ccccc3s2)cc(N(C)S(C)(=O)=O)c1)c1ccccc1 | 29% |  |  | 
6 | C[C@@H](NC(=O)c1cc(C(=O)N[C@@H](Cc2ccccc2)[C@@H](O)C(=O)Nc2nnc(-c3ccncc3)s2)cc(N(C)S(C)(=O)=O)c1)c1ccccc1 | 49% |  |  | 
7 | C[C@@H](NC(=O)c1cc(C(=O)N[C@@H](Cc2ccccc2)[C@@H](O)C(=O)Nc2nnc(Br)s2)cc(N(C)S(C)(=O)=O)c1)c1ccccc1 | 97% | 79% | 26 nM | 
8 | C[C@@H](NC(=O)c1cc(C(=O)N[C@@H](Cc2ccccc2)[C@@H](O)C(=O)Nc2nncs2)cc(N(C)S(C)(=O)=O)c1)c1ccccc1 | 83% | 39% |  | 
9 | COC(=O)c1csc(NC(=O)[C@H](O)[C@H](Cc2ccccc2)NC(=O)c2cc(C(=O)N[C@H](C)c3ccccc3)cc(N(C)S(C)(=O)=O)c2)n1 | 30% |  |  | 
10 | C[C@@H](NC(=O)c1cc(C(=O)N[C@@H](Cc2ccccc2)[C@@H](O)C(=O)Nc2nccs2)cc(N(C)S(C)(=O)=O)c1)c1ccccc1 | 48% |  |  | 
11 | C[C@@H](NC(=O)c1cc(C(=O)N[C@@H](Cc2ccccc2)[C@H](O)C(=O)Nc2nncs2)cc(N(C)S(C)(=O)=O)c1)c1ccccc1 | 38% |  |  | 
12 | CSc1nnc(NC(=O)[C@H](O)[C@H](Cc2ccccc2)NC(=O)c2cc(C(=O)N[C@H](C)c3ccccc3)cc(N(C)S(C)(=O)=O)c2)s1 | 84% | 43% |  | 
13 | COC(=O)c1cnc(NC(=O)[C@H](O)[C@H](Cc2ccccc2)NC(=O)c2cc(C(=O)N[C@H](C)c3ccccc3)cc(N(C)S(C)(=O)=O)c2)s1 | 87% | 56% |  | 
14 | C[C@@H](NC(=O)c1cc(C(=O)N[C@@H](Cc2ccccc2)[C@H](O)C(=O)Nc2nc3ccccc3s2)cc(N(C)S(C)(=O)=O)c1)c1ccccc1 | 5% |  |  | 
15 | C[C@@H](NC(=O)c1cc(C(=O)N[C@@H](Cc2ccccc2)[C@@H](O)C(=O)Nc2ncc([N+](=O)[O-])s2)cc(N(C)S(C)(=O)=O)c1)c1ccccc1 | 96% | 73% |  | 
16 | C[C@@H](NC(=O)c1cc(C(=O)N[C@@H](Cc2ccccc2)[C@@H](O)C(=O)Nc2nnc(C(F)(F)F)s2)cc(N(C)S(C)(=O)=O)c1)c1ccccc1 | 96% | 75% |  | 
17 | C[C@@H](NC(=O)c1cc(C(=O)N[C@@H](Cc2ccccc2)[C@@H](O)C(=O)Nc2nnc(C(C)(C)C)s2)cc(N(C)S(C)(=O)=O)c1)c1ccccc1 | 48% |  |  | 
18 | CCc1nnc(NC(=O)[C@H](O)[C@H](Cc2ccccc2)NC(=O)c2cc(C(=O)N[C@H](C)c3ccccc3)cc(N(C)S(C)(=O)=O)c2)s1 | 88% | 51% |  | 
19 | C[C@@H](NC(=O)c1cc(C(=O)N[C@@H](Cc2ccccc2)[C@H](O)CNC2CC2)cc(N(C)S(C)(=O)=O)c1)c1ccccc1 |  |  |  | > 50000 nM
20 | CCSc1nnc(NC(=O)[C@H](O)[C@H](Cc2ccccc2)NC(=O)c2cc(C(=O)N[C@H](C)c3ccccc3)cc(N(C)S(C)(=O)=O)c2)s1 | 86% | 45% |  | 
21 | Cc1nnc(NC(=O)[C@@H](O)[C@H](Cc2ccccc2)NC(=O)c2cc(C(=O)N[C@H](C)c3ccccc3)cc(N(C)S(C)(=O)=O)c2)s1 | 58% |  |  | 
